Structures can show the parent of a compound that is named as a salt. Where two headings read alike, the source gives them in different places.
Key:
[1] = test system: T. b. brucei 427 bloodstream forms; test: Resazurin-based T. b. brucei assay; format: cell-based; details: Trypanosoma brucei; T. b. brucei 427 bloodstream forms, 72 h; read-out: EC50 T. brucei
Procedure: Parasites strains adapted to culture in vitro were used. T. b. brucei Lister 427 bloodstream form parasites (information about the identity and genealogy of this strain is available at The Rockefeller University website) were grown in HMI-9 medium supplemented with 10% heat-inactivated fetal bovine serum (iFBS).
Cells in logarithmic phase of growth were added using a Multidrop dispenser (45 μL, 500 bloodstream T. b. brucei parasites per well) to 384-well Corning assay plates already containing 5 μL of each compound and controls, and incubated for 72 hours at 37°C. 10 μL of resazurin were added per well, and the plates were further incubated for 6 hours at 37°C. The final fluorescence was determined at 550–590 nm. Pentamidine at 40 nM and 0.0067% DMSO were used as […] growth controls, respectively.

T. cruzi trypomastigotes = test: T. cruzi trypomastigote viability / rate of action assay (CellTiter-Glo bioluminescence); format: cell-based, Trypanosoma cruzi; details: for EC50: Trypanosoma cruzi, read-out: EC50; for EC50 / EC90/EC50 / Hill slope: Trypomastigotes
Procedure: Tulahuen T. cruzi trypomastigotes were recovered 6 days post infection from the supernatant of harvested infected L6 cells cultures after 3 hours at 37°C. 90 μL of parasite culture at a density of 5 × 10^6 cells in RPMI 1640 media were dispensed into 96 Nunc flat bottom assay plates containing 10 μL of each compound.
Parasite viability was assessed upon 24, 48 and 72 hour incubation at 37°C in 5% CO2 by adding 50 μL of CellTiter-Glo viability reagent to white 96-well microplates. After signal stabilization, bioluminescence was read. Compound concentrations ranged from 0.1 μM to 50 μM and final maximal DMSO percentage in the well was 0.05%. Results were normalized to […] control columns in each plate.

[2] = test system: intracellular T. cruzi amastigotes; test: Rate of kill, intracellular T. cruzi amastigotes (CPRG, 96-well); format: cell-based, Trypanosoma cruzi; details: Amastigotes; for EC50: Trypanosoma cruzi
Procedure: For rate of kill experiments, in vitro activity against intracellular T. cruzi amastigotes was analyzed at early time points: 24, 48 and 72 hours. The standard colorimetric transgenic assay was established in a 96-well format, with serial dilutions of compounds and 0.05% as the final maximal DMSO percentage per well. In these experiments L6 host cells were included as negative controls and CPRG conversion was monitored at 585 nm using a Versamax microplate reader (Molecular devices).

[3] = test system: L. donovani MHOM/ET/67/HU3 transgenic intracellular amastigotes; test: L. donovani intracellular amastigote assay (luciferase, THP-1 macrophages); format: cell-based; details: Leishmania donovani, THP-1, 72 h, read-out: EC50 L. donovani
Procedure: Leishmania donovani MHOM/ET/67/HU3 cells with the luciferase gene integrated into the parasite genome was obtained as described. Parasites were grown at 28°C in RPMI 1640-modified medium supplemented with 20% heat-inactivated fetal bovine serum (iFBS, Invitrogen) with […] of hygromycin B.
THP-1 cells were differentiated into macrophages with 20 ng/mL of PMA in a 96-well plate at 3 × 10^4 cells per well for 48 hours followed by 24 hours of culture in fresh medium. Cells were then infected with transgenic stationary L. donovani MHOM/ET/67/HU3 promastigotes expressing the luciferase gene at a multiplicity of infection (MOI) of 10. A volume of 100 μL of culture media containing the test compounds was added to each well and the plates were incubated at 37°C for 72 hours. Luminescence was measured using the Promega kit luciferase assay system.

## N=C(N)c1ccc(OCCCCCOc2ccc(C(=N)N)cc2)cc1 [Pentamidine, pentamidine isethionate salt, reference compound]
[1]
  EC50: 2 nM

## CC1CS(=O)(=O)CCN1/N=C/c1ccc([N+](=O)[O-])o1 (stereo not shown) [Nifurtimox, nifurtimox]
T. cruzi trypomastigotes; 24 h, 0.0195312 µM, untreated 165759
  RLU Average, trypomastigote viability: 169266 RLU
T. cruzi trypomastigotes; 24 h, 0.0390625 µM, untreated 165759
  RLU Average, trypomastigote viability: 166443 RLU
T. cruzi trypomastigotes; 24 h, 0.078125 µM, untreated 165759
  RLU Average, trypomastigote viability: 165831 RLU
T. cruzi trypomastigotes; 24 h, 0.15625 µM, untreated 165759
  RLU Average, trypomastigote viability: 160072 RLU
T. cruzi trypomastigotes; 24 h, 0.3125 µM, untreated 165759
  RLU Average, trypomastigote viability: 149962 RLU
T. cruzi trypomastigotes; 24 h, 0.625 µM, untreated 165759
  RLU Average, trypomastigote viability: 139314 RLU
T. cruzi trypomastigotes; 24 h, 1.25 µM, untreated 165759
  RLU Average, trypomastigote viability: 111524 RLU
T. cruzi trypomastigotes; 24 h, 2.5 µM, untreated 165759
  RLU Average, trypomastigote viability: 65827 RLU
T. cruzi trypomastigotes; 24 h, 5 µM, untreated 165759
  RLU Average, trypomastigote viability: 11749 RLU
T. cruzi trypomastigotes; 24 h, 10 µM, untreated 165759
  RLU Average, trypomastigote viability: 1446 RLU
T. cruzi trypomastigotes; 48 h, 0.0195312 µM, untreated 134778
  RLU Average, trypomastigote viability: 139199 RLU
T. cruzi trypomastigotes; 48 h, 0.0390625 µM, untreated 134778
  RLU Average, trypomastigote viability: 135603 RLU
T. cruzi trypomastigotes; 48 h, 0.078125 µM, untreated 134778
  RLU Average, trypomastigote viability: 135814 RLU
T. cruzi trypomastigotes; 48 h, 0.15625 µM, untreated 134778
  RLU Average, trypomastigote viability: 121189 RLU
T. cruzi trypomastigotes; 48 h, 0.3125 µM, untreated 134778
  RLU Average, trypomastigote viability: 101689 RLU
T. cruzi trypomastigotes; 48 h, 0.625 µM, untreated 134778
  RLU Average, trypomastigote viability: 74973 RLU
T. cruzi trypomastigotes; 48 h, 1.25 µM, untreated 134778
  RLU Average, trypomastigote viability: 27237 RLU
T. cruzi trypomastigotes; 48 h, 2.5 µM, untreated 134778
  RLU Average, trypomastigote viability: 4248 RLU
T. cruzi trypomastigotes; 48 h, 5 µM, untreated 134778
  RLU Average, trypomastigote viability: 1304 RLU
T. cruzi trypomastigotes; 48 h, 10 µM, untreated 134778
  RLU Average, trypomastigote viability: 430 RLU
T. cruzi trypomastigotes; 72 h, 0.0195312 µM, untreated 74303
  RLU Average, trypomastigote viability: 78773 RLU
T. cruzi trypomastigotes; 72 h, 0.0390625 µM, untreated 74303
  RLU Average, trypomastigote viability: 76780 RLU
T. cruzi trypomastigotes; 72 h, 0.078125 µM, untreated 74303
  RLU Average, trypomastigote viability: 75817 RLU
T. cruzi trypomastigotes; 72 h, 0.15625 µM, untreated 74303
  RLU Average, trypomastigote viability: 65552 RLU
T. cruzi trypomastigotes; 72 h, 0.3125 µM, untreated 74303
  RLU Average, trypomastigote viability: 53878 RLU
T. cruzi trypomastigotes; 72 h, 0.625 µM, untreated 74303
  RLU Average, trypomastigote viability: 44434 RLU
T. cruzi trypomastigotes; 72 h, 1.25 µM, untreated 74303
  RLU Average, trypomastigote viability: 6874 RLU
T. cruzi trypomastigotes; 72 h, 2.5 µM, untreated 74303
  RLU Average, trypomastigote viability: 861 RLU
T. cruzi trypomastigotes; 72 h, 5 µM, untreated 74303
  RLU Average, trypomastigote viability: 764 RLU
T. cruzi trypomastigotes; 72 h, 10 µM, untreated 74303
  RLU Average, trypomastigote viability: 553 RLU
T. cruzi trypomastigotes; 24 h
  EC50: 2080 nM
  EC90/EC50: 4.04
  Hill slope: 1.58
T. cruzi trypomastigotes; 48 h
  EC50: 640 nM
  EC90/EC50: 3.61
  Hill slope: 1.71
T. cruzi trypomastigotes; 72 h
  EC50: 600 nM
  EC90/EC50: 3.33
  Hill slope: 1.83
T. cruzi trypomastigotes; 48 h, listed as nifurtimox
  EC90/EC50: 3.6
  Hill slope: below 2.1
T. cruzi trypomastigotes; 72 h, listed as nifurtimox
  EC90/EC50: 3.3
  Hill slope: below 2.1
[2]; 24 h
  EC90/EC50: 4.07
  Hill slope: 1.60
  EC50: 300 nM
[2]; 48 h
  EC90/EC50: 4.16
  Hill slope: 1.55
  EC50: 150 nM
[2]; 72 h
  EC90/EC50: 3.03
  Hill slope: 1.98
  EC50: 130 nM

## C[C@@H]1[C@H](O)[C@@H](C)/C=C/C=C/C=C/C=C/C=C/C=C/C=C/[C@H](O[C@@H]2O[C@H](C)[C@@H](O)[C@H](N)[C@@H]2O)C[C@@H]2O[C@](O)(C[C@@H](O)C[C@@H](O)[C@H](O)CC[C@@H](O)C[C@@H](O)CC(=O)O[C@H]1C)C[C@H](O)[C@H]2C(=O)O [Amphotericin B, amphotericin B, reference compound]
[3]
  EC50: 53 nM

## CC[C@@H]([C@H](C)O)n1ncn(-c2ccc(N3CCN(c4ccc(OC[C@@H]5CO[C@@](Cn6cncn6)(c6ccc(F)cc6F)C5)cc4)CC3)cc2)c1=O [Posaconazole, posaconazole]
T. cruzi trypomastigotes; 2 μM, 24 and 48 hours
  effect against extracellular forms (trypomastigotes): no effect
[2]; 24 h
  EC90/EC50: 5.16
  Hill slope: 1.33
  EC50: 5410 nM
[2]; 48 h
  EC90/EC50: 6.41
  Hill slope: 1.20
  EC50: 0.8 nM
[2]; 72 h
  EC90/EC50: 1.83
  Hill slope: 3.65
  EC50: 0.7 nM
